The test system of data set [1] is Staphylococcus aureus. Put plainly: Antibacterial activity against Staphylococcus aureus. The data set is classed as functional.
The test system of data set [2] is Escherichia coli. The data set can be described thus: Antibacterial activity against Escherichia coli. It is filed as functional.
Data set [3] relates to Mycobacterium tuberculosis. Put plainly: Antimycobacterial activity against Mycobacterium tuberculosis H37Rv ATCC 27294 by microplate alamar blue assay. The data set is classed as functional, organism-based. (In general: Resazurin is reduced to fluorescent resorufin, in cell work by metabolically active cells.)
The test system of data set [4] is Vero. The data set can be described thus: Cytotoxicity against african green monkey Vero cells after 72 hrs by MTT assay. It is filed as cell-based. The conditions noted are these: Chlorocebus sabaeus. (In general: Tetrazolium dyes change colour on reduction, which living cells bring about.)
Data set [5] can be described thus: Cytotoxicity against african green monkey Vero cells assessed as cell viability at 40 ug/mL after 72 hrs by MTT assay. It is filed as cell-based. The conditions noted are these: chlorocebus sabaeus, read-out: Activity.

Converted amounts (≈) assume the structure as drawn.

On to `COc1ccc(CNc2nc(Cl)nc(-c3ccco3)c2NC=O)cc1`, for which the MIC in data set [1] and in data set [2] was over 64 µg/mL each time.
Consider `COc1ccc(CNc2nc(F)nc(-c3ccco3)c2NC=O)cc1`, for which the MIC in data set [1] and in data set [2] was over 64 µg/mL in each case.
Turning to `COc1ccc(CNc2ncnc(-c3ccco3)c2NC=O)cc1`, the MIC in data set [1] and in data set [2] was over 64 µg/mL throughout.
`COc1ccc(CNc2nc(C(F)(F)F)nc(-c3ccco3)c2NC=O)cc1`: in data set [3], half-maximal inhibition (IC50) was put at 0.26 µg/mL (≈ 0.663 µM) and it took 0.58 µg/mL (≈ 1.48 µM) to reach the 90% level (IC90).
Turning to GENTAMICIN, in data set [1], the minimum inhibitory concentration (MIC) worked out at 0.1 µg/mL.
Regarding `COc1ccc(CNc2nc([N+](=O)[O-])nc(-c3ccco3)c2NC=O)cc1`, the MIC in data set [1] and in data set [2] was over 64 µg/mL throughout. In addition, the EC50 in data set [4] is over 40 µg/mL. For the same molecule, the viability at 72 h, 40 ug/mL in data set [5] amounted to 62%.

As usually defined, the MIC is the lowest concentration that inhibits growth of the organism. As usually defined, the IC50 is the concentration that gives 50% inhibition. Broadly, the IC90 is the concentration at which the effect reaches the 90% level. A word on the EC50: it is the concentration giving half of the maximal effect.

For the origin of these results see ChEMBL document CHEMBL1781953, “Synthesis and antimycobacterial activity of 5-formylaminopyrimidines; analogs of antibacterial purines” (Bioorg Med Chem Lett, 2009).
